Reference: US20140031431A1, “PEST-IMPERVIOUS PACKAGING MATERIAL AND PEST-CONTROL COMPOSITION” (Biopack Ltd., priority 2004, published 2014)

Key:
T. castaneum adults = assay: Repellency bioassay (Examples 2-4); assay type: in vivo, Tribolium castaneum; design: key to Repellency: 0 (no effect); +; ++; +++ (strong effect)
Procedure: (§1) In order to evaluate the effect of isolated samples or compounds on the behavior of storage insects, three bioassays were conducted: repellency, “choice” and “non-choice” paper perforation bioassays. These bioassays were aimed to uncover two principle activities: repellency and antifeedant activities. Accordingly, the “repellency bioassay” uncovered the sample's capacity to repel insects and the “choice bioassay” uncovered the combined antifeedant and repelling activities. […] Thus, the combined data of all three bioassays enabled determining the antifeedant capacity of the sample.
The propensity of the tested extracts to repel insects was determined against T. castaneum adults using the methods by Laudani et al. (1955) and McDonald et al. (1970). Accordingly, filter paper strips (Filtrak 3 HW; 10×20 cm) were treated with 4 ml of acetone solutions of turmeric extracts at 50 μg/cm^2 (or any other predetermined concentration). Each treated paper strip was attached lengthwise by Scotch tape on the reverse side, edge to edge, to two untreated 5×20 cm strips, to which acetone alone had been similarly applied. Two glass rings, 2.5 cm high and 6.4 cm i.d., were then placed over the two matched papers so that the joined edges of the papers bisected the rings. Ten adults of the test insect species were then exposed separately on the test arenas inside each glass ring, and their numbers on the treated and untreated halves were recorded every hour for the first eight hours exposure on the first day, and then in the morning of the next day two additional recordings were made for a total of 10 consecutive readings. In each test four replicates were conducted. All tests were performed at 27° C. The average count of all four replicates, each containing 10 reading periods was converted to percent repellency values, as described by Laudani et al. (1955).

R. dominica adults [1] = assay: Non-choice paper perforation bioassay (Examples 2-4); assay type: in vivo, Rhyzopertha dominica; conditions: 24 hours
Description: The device used for the penetration prevention bioassay consisted of two identical open-ended glass cylinders (24 mm i.d., 28 mm o.d., 26 mm height) each with four notches spaced at equal distances around the outer rim. The impregnated office paper and a piece of wire-mesh (US standard No. 25) cut into 28 mm diameter discs were placed together on top of one cylinder. Then the second cylinder was placed over the wire-mesh and the two cylinders were pressed together and held in place by two rubber bands, secured by the notches in the cylinder rims (Navarro et al., 1998). Ten 10-15 d old R. dominica adults were placed inside the top cylinder and were kept in the test devices for […] in a temperature and humidity controlled room. All tests were run at 27° C. and 65% R.H., and there were ten replicates (devices) per test. At the end of each exposure period, the discs were examined on a black surface under a binocular microscope at 15× magnification. The number of perforations appearing as black circles were counted, and a comparative analysis was performed using the Student's t test for residual effect and the differences between control and dosages applied were determined using Dunnet's test (Anon., 1989). […]

R. dominica adults [2] = assay: Choice paper perforation bioassay (Examples 2-4); assay type: in vivo, Rhyzopertha dominica
Procedure: as §1
The same methodology used in the non-choice test was used in this test. However, in choice test, the 28 mm diameter discs of 110 μm thick office paper were divided in half; one side was impregnated with the oil or fraction under test, while the other half was used as a blank and was treated with acetone only. In this test only a 50 microgram sample of the test oil or fraction was applied per cm^2 of paper. […] The number of perforations appearing in the two parts of the disc were counted, and a comparative analysis was performed using the Student's t test for residual effect and the differences between control and dosages applied were determined using Dunnet's test (Anon., 1989).

storage insects = assay: Penetration prevention (antifeedant) effect judged from combined repellency, choice and non-choice bioassays; assay type: in vivo, Rhyzopertha dominica; design: key: 0 (no effect); +; ++; +++ (strong effect); conditions: at 50 μg/cm^2, 4 arbitrary classes
Procedure: as §1

[3] = tested on: storage beetle Tribolium castaneum; conditions: as long as 8 weeks following application; cited from earlier work
[4] = tested on: several field and storage insects; conditions: direct application methods; cited from earlier work

Compound: CC(C)=CC(=O)CC(C)c1ccc(C)cc1 (stereo not drawn) [ar-turmerone, 2-methyl-6-(4-methylphenyl)-2-hepten-4-one]
- Repellency test (%) (50 μg/cm^2) (T. castaneum adults; 50 μg/cm^2): 75%
- Repellency (T. castaneum adults; at 50 μg/cm^2, 4 arbitrary classes): +++
- ar-turmerone required to achieve 60% repellency (T. castaneum adults; estimated from concentration-repellency curve (FIG. 2)): ~32 μg/cm^2
- Non-choice test (%) (50 μg/cm^2) (R. dominica adults [1]): −483%
- Choice Test (%) (50 μg/cm^2) (R. dominica adults [2]): 89%
- Penetration prevention effect (storage insects): 0
- average repellency [3]: 62.9%
- repellency class [3]: IV (class IV, 60.1-80%)
- concentration at which insecticidal [4]: at least 500 ppm
